# Values of other authors in patent US20250235554A1, “METHODS FOR IMPROVING ADENO-[…] (AAV) […]” (Novartis AG, priority 2021, published 2025).
# Test system: glymphatic flow
# Conditions: mice and rats
compound,measurement,value
Cc1cccc([C@H](C)c2cnc[nH]2)c1C [Dexmedetomidine],effect on brain and spinal cord exposure of intrathecally administered drugs,increases brain and spinal cord drug exposure of intrathecally administered drugs
